Reference: patent publication US6455593B1, “Method of dynamic retardation of cell cycle kinetics to potentiate cell damage” (priority 1995, dated 2002)
Read-outs that look alike come from different tables or passages of the source.

Tests used:
U937 cells = assay: Delayed proliferation assay (MTT 48 hr after washing)
Protocol: Microcultures treated with an agent or agents for a defined period (exactly as in Example 8) were washed. Seventy-five percent of the well volume was removed without disturbing the sedimented cells, and medium was added to yield a ⅕ dilution. In three additional washes and cell sedimentations, 50% of the medium was replaced such that the original concentration of agents was reduced to <5%. The metabolic mass of cells surviving or proliferating at 48 hr after the washings, including the untreated control cells, was then assayed by the MTT method (total elapsed time of 70 hours).
As an adjunct to the delayed proliferative assay, we utilized an “immediate plate” to quantitate the cell mass at the beginning of the experiment (N0=original cell mass). It required no more than a single column of microwells filled with 50 μl of growth medium each, and aliquots of cells in 50 μl identical to those transferred to the usual “test plate”. The immediate plate was incubated at 37° C. to complete the MTT assay for the same time as used for the test plate (i.e. 3 hr).
Taking the mean final cell mass at 70 hours as N, each data point represents a ratio of the mean cell mass of dThd-treated cells as fraction of N/N0. A ratio of N/N0=1 indicates no change in original cell mass (i.e. no growth of the targeted population). A ratio of N/N0>1 indicates overall growth of the targeted population. A ratio of N/N0<1 indicates overall population loss (cell killing).
Taking the mean final cell mass at 70 hours as N, positive percentages represent the % effective cytotoxicity (EC%) expressed as 1−N/N0 and converted to a percentage, in relation to concentration. Thus, EC obtained only for ratios of N/N0<1 (i.e. positive percentages).

[1] = human subjects, oral doses; cited from earlier work
[2] = tested on: human promonocytic lymphoma cells (U937); assay: Microculture indicator system (MIS), MTT growth inhibition assay with bivariate serial dilutions; format: cell-based
In short: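 U937 human promonocytic lymphoma cells were tested in flat-bottom 96-well plates. Two agents were each diluted two-fold by serial mixing, then combined into bivariate dilution series before about 1×10^5 cells per well were added in RPMI 1640 with 10% Nurserum and antibiotics, 100 μl per well. Plates were incubated at 37° C. Thirty μl of 0.5% MTT was then added for 3 hr. Formazan was dissolved overnight with 120 μl of 10 % SDS/0.01 N HCl and absorbance was read at 570 nm against a cell-free blank.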

[3] = Homo sapiens, U-937, 4 h, U937, dThd […] 4 H, Cisplatin 0, read-out: MTT % inhibition, dThd only

Cc1cn([C@H]2C[C@H](O)[C@@H](CO)O2)c(=O)[nH]c1=O [dThd, deoxythymidine]
Effect on cell growth (U937 cells; 0.1 mM dThd alone, FIG. 20): minimal effect on cell growth as compared to controls
Concentration for effective cytotoxicity of 40% (EC40) (U937 cells; dThd alone, 70 hours): More than 3 mM
Blood (plasma) levels achieved [1]: up to 6 mM
inhibition at 10 µM ([2]; Homo sapiens, U-937, 4 h, U937, dThd 0.01 mM 4 H, no Cisplatin, read-out: MTT % inhibition, dThd only): 7%
inhibition at 10 µM ([2]; Homo sapiens, U-937, 4 h, U937, dThd 0.01 mM (column 8, lowest) 4 H, no Cisplatin, read-out: MTT % inhibition, dThd only): 4%
inhibition at 20 µM ([2]; Homo sapiens, U-937, 4 h, U937, dThd 0.02 mM 4 H, no Cisplatin, read-out: MTT % inhibition, dThd only): 12%
inhibition at 50 µM ([2]; Homo sapiens, U-937, 4 h, U937, dThd 0.05 mM 4 H, no Cisplatin, read-out: MTT % inhibition, dThd only): 19%
inhibition at 90 µM ([2]; Homo sapiens, U-937, 4 h, U937, dThd 0.09 mM 4 H, Cisplatin 0, read-out: MTT % inhibition, dThd only): 22%
inhibition at 3000 µM ([2]; Homo sapiens, U-937, 4 h, U937, dThd 3.00 mM 4 H, Cisplatin 0, read-out: MTT % inhibition, dThd only): 56%
inhibition at 190 µM [2, 3]: 29%
inhibition at 380 µM [2, 3]: 32%
inhibition at 760 µM [2, 3]: 40%
inhibition at 1500 µM [2, 3]: 48%
inhibition at 10 µM ([2]; Homo sapiens, U-937, U937, dThd 0.01 mM (c20) for 0 H (added with STSP), STSP for 18 H, total 18 H, STSP nM: 100,50,25,12.6,6.25,3.13, r28 dThd alone, read-out: Growth inhibition (MTT), dThd for 0 H, dThd 0.01 mM (ninth dilution)): 4%
inhibition at 10 µM ([2]; Homo sapiens, U-937, U937, dThd 0.01 mM (c20) for 4 H, STSP for 14 H, total 18 H, STSP nM: 100,50,25,12.5,6.25,3.125, r14 dThd alone, read-out: Growth inhibition (MTT), dThd 0.01 mM (ninth dilution)): -2%
inhibition at 10 µM ([2]; Homo sapiens, U-937, U937, dThd 0.01 mM (c22, last dilution) for 0 H (added with STSP), STSP for 18 H, total 18 H, STSP nM: 100,50,25,12.6,6.25,3.13, r28 dThd alone, read-out: Growth inhibition (MTT), dThd for 0 H, dThd 0.01 mM (tenth, last dilution)): 3%
inhibition at 10 µM ([2]; Homo sapiens, U-937, U937, dThd 0.01 mM (c22, last two-fold dilution) for 4 H, STSP for 14 H, total 18 H, STSP nM: 100,50,25,12.5,6.25,3.125, r14 dThd alone, read-out: Growth inhibition (MTT), dThd 0.01 mM (tenth, last dilution)): -7%
inhibition at 20 µM ([2]; Homo sapiens, U-937, U937, dThd 0.02 mM for 0 H (added with STSP), STSP for 18 H, total 18 H, STSP nM: 100,50,25,12.6,6.25,3.13, r28 dThd alone, read-out: Growth inhibition (MTT), dThd for 0 H, dThd 0.02 mM): 6%
inhibition at 20 µM ([2]; Homo sapiens, U-937, U937, dThd 0.02 mM for 4 H, STSP for 14 H, total 18 H, STSP nM: 100,50,25,12.5,6.25,3.125, r14 dThd alone, read-out: Growth inhibition (MTT), dThd 0.02 mM): 11%
inhibition at 50 µM ([2]; Homo sapiens, U-937, U937, dThd 0.05 mM for 4 H, STSP for 14 H, total 18 H, STSP nM: 100,50,25,12.5,6.25,3.125, r14 dThd alone, read-out: Growth inhibition (MTT), dThd 0.05 mM): 10%
inhibition at 60 µM ([2]; Homo sapiens, U-937, U937, dThd 0.06 mM for 0 H (added with STSP), STSP for 18 H, total 18 H, STSP nM: 100,50,25,12.6,6.25,3.13, r28 dThd alone, read-out: Growth inhibition (MTT), dThd for 0 H, dThd 0.06 mM): 10%
inhibition at 90 µM ([2]; Homo sapiens, U-937, U937, dThd 0.09 mM for 0 H (added with STSP), STSP for 18 H, total 18 H, STSP nM: 100,50,25,12.6,6.25,3.13, r28 dThd alone, read-out: Growth inhibition (MTT), dThd for 0 H, dThd 0.09 mM): 12%
inhibition at 90 µM ([2]; Homo sapiens, U-937, U937, dThd 0.09 mM for 4 H, STSP for 14 H, total 18 H, STSP nM: 100,50,25,12.5,6.25,3.125, r14 dThd alone, read-out: Growth inhibition (MTT), dThd 0.09 mM): 14%
inhibition at 3000 µM ([2]; Homo sapiens, U-937, U937, dThd 3.00 mM for 0 H (added with STSP), STSP for 18 H, total 18 H, STSP nM: 100,50,25,12.6,6.25,3.13, r28 dThd alone, read-out: Growth inhibition (MTT), dThd for 0 H, dThd 3.00 mM): 38%
inhibition at 3000 µM ([2]; Homo sapiens, U-937, U937, dThd 3.00 mM for 4 H, STSP for 14 H, total 18 H, STSP nM: 100,50,25,12.5,6.25,3.125, r14 dThd alone, read-out: Growth inhibition (MTT), dThd 3.00 mM): 50%
inhibition at 190 µM ([2]; Homo sapiens, U-937, read-out: Growth inhibition (MTT), dThd […], U937, dThd […] for 4 H, STSP for 14 H, total 18 H, STSP nM: 100,50,25,12.5,6.25,3.125, r14 dThd alone, read-out: Growth inhibition (MTT), dThd 0.19 mM): 18%
inhibition at 380 µM ([2]; Homo sapiens, U-937, read-out: Growth inhibition (MTT), dThd […], U937, dThd […] for 4 H, STSP for 14 H, total 18 H, STSP nM: 100,50,25,12.5,6.25,3.125, r14 dThd alone, read-out: Growth inhibition (MTT), dThd 0.38 mM): 23%
inhibition at 750 µM ([2]; Homo sapiens, U-937, read-out: Growth inhibition (MTT), dThd […], U937, dThd […] for 4 H, STSP for 14 H, total 18 H, STSP nM: 100,50,25,12.5,6.25,3.125, r14 dThd alone, read-out: Growth inhibition (MTT), dThd 0.75 mM): 34%
inhibition at 1500 µM ([2]; Homo sapiens, U-937, read-out: Growth inhibition (MTT), dThd […], U937, dThd […] for 4 H, STSP for 14 H, total 18 H, STSP nM: 100,50,25,12.5,6.25,3.125, r14 dThd alone, read-out: Growth inhibition (MTT), dThd 1.5 mM): 41%
inhibition at 190 µM ([2]; Homo sapiens, U-937, read-out: Growth inhibition (MTT), dThd for 0 H, dThd […], U937, dThd […] for 0 H (added with STSP), STSP for 18 H, total 18 H, STSP nM: 100,50,25,12.6,6.25,3.13, r28 dThd alone, read-out: Growth inhibition (MTT), dThd for 0 H, dThd 0.19 mM): 15%
inhibition at 380 µM ([2]; Homo sapiens, U-937, read-out: Growth inhibition (MTT), dThd for 0 H, dThd […], U937, dThd […] for 0 H (added with STSP), STSP for 18 H, total 18 H, STSP nM: 100,50,25,12.6,6.25,3.13, r28 dThd alone, read-out: Growth inhibition (MTT), dThd for 0 H, dThd 0.38 mM): 20%
inhibition at 760 µM ([2]; Homo sapiens, U-937, read-out: Growth inhibition (MTT), dThd for 0 H, dThd […], U937, dThd […] for 0 H (added with STSP), STSP for 18 H, total 18 H, STSP nM: 100,50,25,12.6,6.25,3.13, r28 dThd alone, read-out: Growth inhibition (MTT), dThd for 0 H, dThd 0.76 mM): 27%
inhibition at 1500 µM ([2]; Homo sapiens, U-937, read-out: Growth inhibition (MTT), dThd for 0 H, dThd […], U937, dThd […] for 0 H (added with STSP), STSP for 18 H, total 18 H, STSP nM: 100,50,25,12.6,6.25,3.13, r28 dThd alone, read-out: Growth inhibition (MTT), dThd for 0 H, dThd 1.50 mM): 33%
Enhancement of DEET-induced apoptosis as prospective RA ([2]; MTT tests, about 0.05 to 3 mM, preliminary results): no significant enhancement of the DEET-induced apoptosis
dThd concentration at maximum difference between the plots for O and S ([2]; O/S plots of dThd and STSP, FIG. 15, U937): approximately 0.1 mM
RA concentration for STSP potentiation relative to concentration causing cell cycle arrest ([2]; U937): at least one log lower
Combined results ratio (CRR), dThd for 0 H, dThd 0.02 mM ([2]; U937, dThd 0.02 mM for 0 H (added with STSP), STSP for 18 H, total 18 H, STSP nM: 100,50,25,12.6,6.25,3.13, r27 dThd alone): 1.0
Combined results ratio (CRR), dThd 0.02 mM ([2]; U937, dThd 0.02 mM for 4 H, STSP for 14 H, total 18 H, STSP nM: 100,50,25,12.5,6.25,3.125, r13 dThd alone): 1.0
Combined results ratio (CRR), dThd 0.05 mM ([2]; U937, dThd 0.05 mM for 4 H, STSP for 14 H, total 18 H, STSP nM: 100,50,25,12.5,6.25,3.125, r13 dThd alone): 1.0
Combined results ratio (CRR), dThd for 0 H, dThd 0.06 mM ([2]; U937, dThd 0.06 mM for 0 H (added with STSP), STSP for 18 H, total 18 H, STSP nM: 100,50,25,12.6,6.25,3.13, r27 dThd alone): 1.0
Combined results ratio (CRR), dThd for 0 H, dThd 0.09 mM ([2]; U937, dThd 0.09 mM for 0 H (added with STSP), STSP for 18 H, total 18 H, STSP nM: 100,50,25,12.6,6.25,3.13, r27 dThd alone): 1.0
Combined results ratio (CRR), dThd 0.09 mM ([2]; U937, dThd 0.09 mM for 4 H, STSP for 14 H, total 18 H, STSP nM: 100,50,25,12.5,6.25,3.125, r13 dThd alone): 1.0
Combined results ratio (CRR), dThd for 0 H, dThd 3.00 mM ([2]; U937, dThd 3.00 mM for 0 H (added with STSP), STSP for 18 H, total 18 H, STSP nM: 100,50,25,12.6,6.25,3.13, r27 dThd alone): 1.0
Combined results ratio (CRR), dThd 3.00 mM ([2]; U937, dThd 3.00 mM for 4 H, STSP for 14 H, total 18 H, STSP nM: 100,50,25,12.5,6.25,3.125, r13 dThd alone): 1.0
Combined results ratio (CRR), dThd for 0 H, dThd […] ([2]; U937, dThd […] for 0 H (added with STSP), STSP for 18 H, total 18 H, STSP nM: 100,50,25,12.6,6.25,3.13, r27 dThd alone): 1.0
Combined results ratio (CRR), dThd […] ([2]; U937, dThd […] for 4 H, STSP for 14 H, total 18 H, STSP nM: 100,50,25,12.5,6.25,3.125, r13 dThd alone): 1.0
combined results ratio, dThd only (baseline line) ([2]; U937, dThd alone, every dThd concentration 3.00-0.01 mM): 1.0
